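Step 1: Grow cells in 96-well plates. Step 2: Expose to compound for 48 hours at 5 concentrations. Step 3: Interpolate endpoints linearly; if unreached, use highest concentration. Definition used: TGI = concentration required for complete inhibition of growth.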
What was measured:
Test in all cases: inhibition of tumour cell growth, NCI panel, 48 h
[1] = test system: M14 melanoma
[2] = test system: MDA-MB-435
[3] = test system: SNB-19 CNS
[4] = test system: COLO 205 colon
[5] = test system: MDA-MB-231 breast
[6] = test system: NCI-H226 lung
[7] = test system: MDA-N
[8] = test system: HCT-116 colon
[9] = test system: SF-539 CNS
[10] = test system: DU-145 prostate
[11] = test system: K-562 leukemia
[12] = test system: SN12C renal
[13] = test system: OVCAR-8 ovarian
[14] = test system: MALME-3M melanoma
[15] = test system: EKVX NSCLC
[16] = test system: PC-3 prostate
[17] = test system: NCI/ADR-RES ovarian
[18] = test system: RXF 393 renal
[19] = test system: HOP-62 NSCLC
[20] = test system: IGROV1 ovarian
[21] = test system: U251 CNS
[22] = test system: SNB-75 CNS
[23] = test system: MOLT-4 leukemia
[24] = test system: KM12 colon
[25] = test system: SR leukemia
[26] = test system: HL-60(TB) leukemia
[27] = test system: CCRF-CEM leukemia
[28] = test system: HT29 colon
[29] = test system: 786-0 renal
[30] = test system: HS 578T breast
[31] = test system: A498 renal
[32] = test system: SF-268 CNS
[33] = test system: SW-620 colon
[34] = test system: SK-MEL-5 melanoma
[35] = test system: OVCAR-5 ovarian
[36] = test system: LOX IMVI melanoma
[37] = test system: MCF7 breast
[38] = test system: RPMI-8226 leukemia
[39] = test system: SK-MEL-28 melanoma
[40] = test system: SF-295 CNS
[41] = test system: SK-MEL-2 melanoma
[42] = test system: OVCAR-3 ovarian
[43] = test system: SK-OV-3 ovarian
[44] = test system: CAKI-1 renal
[45] = test system: OVCAR-4 ovarian
[46] = test system: HCT-15 colon
[47] = test system: T-47D breast
[48] = test system: HCC-2998 colon
[49] = test system: NCI-H522 lung
[50] = test system: UO-31 renal
[51] = test system: ACHN renal
[52] = test system: NCI-H23 lung
[53] = test system: UACC-62 melanoma
[54] = test system: HOP-92 NSCLC
[55] = test system: TK-10 renal
[56] = test system: A549 NSCLC
[57] = test system: NCI-H460 lung

Measured: TGI

NC(=O)Cn1c(=O)oc2cc(C(=O)CN3CCOCC3)ccc21
not listed: [45] | [46] | [47] | [48] | [49] | [50] | [51] | [52] | [53] | [54] | [55] | [56] | [57]
> 100 µM: all other assays above

Cn1c(=O)ccc2c(=O)c3ccccc3oc21
16.8 µM: [50]
not listed: [22] | [23] | [29] | [37] | [38]
> 100 µM: all other assays above
